Source: US20130323279A1, “Human Endogenous Retrovirus Polypeptide Compositions and Methods of Use Thereof” (The J. David Gladstone Institutes, priority 2006, published 2013)

Test system: PBMC
Experiment: IFN-γ ELISPOT assay of T cell responses to HERV and HIV-1 peptides
Format: cell-based, Human
Conditions: a study participant whose PBMC were used for the 51Cr release assay
Description: HIV-1 positive volunteers were selected for this study. The study was approved by the local institutional review board and subjects were given written informed consent. Studies were performed on cryopreserved PBMC from various patient timepoints.
ELISPOT analysis was performed as previously described^34. Plates were incubated 15-18 hours at 37° C. Equivalent antigen concentrations were used for HIV and HERV peptide response comparisons. Assays were performed with duplicate wells for each condition, expect where cell recovery from archived samples dictated the use of single wells. Plates were counted with an AID ELISPOT reader (Cell Technology,). Spot totals for duplicate wells were averaged, and all spot numbers were normalized to numbers of IFN-γ spot-forming units (SFU) per 1×10^6PBMC. Spot values from media control wells were subtracted to determine responses to each peptide. Any resulting peptide values <0 following media subtraction were set to 0 for further analysis.

IPVHKAHKKQ [HERV-L IQ10]
response of study participant's PBMC to peptide: responded
